# Laboratory results from ChEMBL document CHEMBL4376804, “Review of Transient Receptor Potential Canonical (TRPC5) Channel Modulators and Diseases” (J Med Chem, 2019).
# Target: T1, Short transient receptor potential channel 5 (Homo sapiens, UniProt Q9UL62)
# T1 sequence (Q9UL62 whole entry): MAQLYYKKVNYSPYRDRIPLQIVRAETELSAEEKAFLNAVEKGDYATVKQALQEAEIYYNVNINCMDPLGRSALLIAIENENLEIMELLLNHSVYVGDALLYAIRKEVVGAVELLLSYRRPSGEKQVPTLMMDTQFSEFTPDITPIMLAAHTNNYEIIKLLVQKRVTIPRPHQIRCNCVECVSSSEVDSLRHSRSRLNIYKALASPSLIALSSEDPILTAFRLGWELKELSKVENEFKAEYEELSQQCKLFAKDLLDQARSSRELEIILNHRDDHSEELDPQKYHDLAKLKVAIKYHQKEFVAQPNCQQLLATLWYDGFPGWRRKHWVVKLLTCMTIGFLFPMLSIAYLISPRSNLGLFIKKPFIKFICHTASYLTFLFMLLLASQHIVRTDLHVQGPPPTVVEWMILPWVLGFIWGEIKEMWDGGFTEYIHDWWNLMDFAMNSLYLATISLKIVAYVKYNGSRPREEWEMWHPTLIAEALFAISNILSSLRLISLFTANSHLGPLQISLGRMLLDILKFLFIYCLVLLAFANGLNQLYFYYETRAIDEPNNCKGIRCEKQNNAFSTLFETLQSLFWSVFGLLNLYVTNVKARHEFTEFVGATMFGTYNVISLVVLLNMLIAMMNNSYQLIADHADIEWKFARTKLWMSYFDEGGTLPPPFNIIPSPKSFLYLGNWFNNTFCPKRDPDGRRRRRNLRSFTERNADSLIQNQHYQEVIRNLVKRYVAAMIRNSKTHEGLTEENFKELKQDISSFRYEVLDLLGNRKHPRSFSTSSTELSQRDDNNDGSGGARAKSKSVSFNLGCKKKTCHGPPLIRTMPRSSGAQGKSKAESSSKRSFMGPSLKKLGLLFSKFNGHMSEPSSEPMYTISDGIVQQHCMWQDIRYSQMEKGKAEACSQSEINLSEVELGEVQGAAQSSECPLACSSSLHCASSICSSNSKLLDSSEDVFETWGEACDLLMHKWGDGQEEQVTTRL
# Assay: Inhibition of TRPC5 (unknown origin) expressed in HEK293/TREx cells assessed as reduction in intracellular calcium level measured for 3 mins by fluo4 dye-based fluorescence assay
# Format: cell-based
row,Compound,IC50
1,Cc1c(-c2cccc(OC(F)(F)F)c2)[nH]c2c(=O)n(CCCO)c(=O)n(C)c12,408 to 7540 nM
2,CC(C)CCc1c(-c2cccc(Cl)c2)ncc2c1c(=O)n(CCCO)c(=O)n2C,195 to 9800 nM
3,Cc1cn(Cc2ccc(Cl)cc2)c2c(=O)n(CCCO)c(=O)n(C)c12,408 to 7540 nM
4,Cc1c(-c2ccc(F)c(F)c2)sc2c1c(=O)n(CCCO)c(=O)n2C,21 to 1700 nM
5,Cn1c(=O)n(CCCO)c(=O)c2c1c(-c1cccc(Cl)c1)cn2Cc1ccc(Cl)cc1,408 to 7540 nM
6,COc1ccc2c(c1Cc1ccc(F)cc1)c(=O)n(CCCO)c(=O)n2C,1 to 395 nM
7,Cn1c(=O)n(CCCO)c(=O)c2c(Cc3ccc(Cl)cc3)c(-c3cccc(Cl)c3)oc21,21 to 1700 nM
8,Cc1c(-c2cccc(Cl)c2)sc2c1c(=O)n(CCCO)c(=O)n2C,21 to 1700 nM
9,Cc1c(-c2cccc(OC(F)(F)F)c2)n(Cc2ccc(Cl)cc2)c2c(=O)n(CCCO)c(=O)n(C)c12,408 to 7540 nM
10,CC(C)CCc1c(-c2ccc(Cl)cc2)ncc2c1c(=O)n(CCCO)c(=O)n2C,195 to 9800 nM
11,CC(C)CCc1c(-c2ccccc2C(C)C)ncc2c1c(=O)n(CCCO)c(=O)n2C,195 to 9800 nM
12,CC(C)Oc1ccc2c(c1Cc1ccc(F)cc1)c(=O)n(CCCO)c(=O)n2C,1 to 395 nM
13,Cn1c(=O)n(CCCO)c(=O)c2c(Cc3ccc(Cl)cc3)c(Oc3cccc(Cl)c3)sc21,21 to 1700 nM
14,Cn1c(=O)n(CCCO)c(=O)c2c(Cc3ccc(Cl)cc3)c(-c3cccc(Cl)c3)sc21,21 to 1700 nM
15,Cn1c(=O)n(CCCO)c(=O)c2c(Cc3ccccc3)c(-c3cccc(OC(F)(F)F)c3)ncc21,195 to 9800 nM
16,Cc1c(-c2ccc(Cl)cc2)sc2c1c(=O)n(CCCO)c(=O)n2C,21 to 1700 nM
17,Cn1c(=O)n(CCCO)c(=O)c2c(Cc3ccc(Cl)cc3)c(-c3cccc(OC(F)(F)F)c3)sc21,21 to 1700 nM
18,Cc1c(-c2cncc(Cl)c2)sc2c1c(=O)n(CCCO)c(=O)n2C,21 to 1700 nM
19,CC(C)c1ccccc1-c1ncc2c(c1Cc1ccc(Cl)cc1)c(=O)n(CCCO)c(=O)n2C,195 to 9800 nM
20,CC(C)CC(O)c1c(-c2cccc(OC(F)(F)F)c2)sc2c1c(=O)n(CCCO)c(=O)n2C (stereo not drawn),21 to 1700 nM
21,Cn1c(=O)n(CCCO)c(=O)c2c(Cc3ccc(F)cc3)c(Oc3cccc(OC(F)(F)F)c3)ccc21,1 to 395 nM
22,CCCOc1ccc2c(c1Cc1ccc(F)cc1)c(=O)n(CCCO)c(=O)n2C,1 to 395 nM
23,Cn1c(=O)n(CCCO)c(=O)c2c(Cc3ccc(Cl)cc3)c(-c3ccc(Cl)cc3)sc21,21 to 1700 nM
24,CCCCOc1ccc2c(c1Cc1ccc(F)cc1)c(=O)n(CCCO)c(=O)n2C,1 to 395 nM

row,Compound,IC50
1,Cn1c(=O)n(CCCO)c(=O)c2c(Cc3ccccc3)c(Oc3cccc(Cl)c3)ccc21,1 to 395 nM
2,Cc1c(-c2ccccc2Cl)sc2c1c(=O)n(CCCO)c(=O)n2C,21 to 1700 nM
3,Cn1c(=O)n(CCCO)c(=O)c2c(C(O)c3ccc(Cl)cc3)c(-c3cccc(Cl)c3)sc21 (stereo not drawn),21 to 1700 nM
4,Cn1c(=O)n(CCCO)c(=O)c2c(Cc3ccccc3)c(-c3cccc(OC(F)(F)F)c3)ccc21,1 to 395 nM
5,Cn1c(=O)n(CCCO)c(=O)c2c(Cc3ccccc3)c(Oc3cccc(OC(F)(F)F)c3)ccc21,1 to 395 nM
6,O=c1c2c(Cc3ccc(Cl)cc3)c(-c3cccc(Cl)c3)oc2n(CCCO)c(=O)n1CCCO,21 to 1700 nM
7,Cn1c(-c2cccc(OC(F)(F)F)c2)cc2c1c(=O)n(CCCO)c(=O)n2C,408 to 7540 nM
8,Cn1c(=O)n(CCCO)c(=O)c2c1cc(-c1cccc(OC(F)(F)F)c1)n2Cc1ccc(Cl)cc1,408 to 7540 nM
9,Cc1c(-c2ccc(Cl)c(Cl)c2)sc2c1c(=O)n(CCCO)c(=O)n2C,21 to 1700 nM
10,Cn1c(=O)n(CCCO)c(=O)c2c1cc(-c1cccc(Cl)c1)n2Cc1ccc(Cl)cc1,408 to 7540 nM
11,Cn1c(=O)n(CCCCO)c(=O)c2c(Cc3ccccc3)c(Oc3cccc(OC(F)(F)F)c3)ccc21,1 to 395 nM
12,Cc1c(-c2ccccc2OC(F)(F)F)sc2c1c(=O)n(CCCO)c(=O)n2C,21 to 1700 nM
13,Cc1c(-c2cccc(Cl)c2Cl)sc2c1c(=O)n(CCCO)c(=O)n2C,21 to 1700 nM
14,CC(C)CCc1c(-c2cccc(OC(F)(F)F)c2)sc2c1c(=O)n(CCCO)c(=O)n2C,21 to 1700 nM
15,CC(C)c1ccccc1-c1cc2c(=O)n(CCCO)c(=O)n(C)c2cn1,195 to 9800 nM
16,Cn1c(=O)n(CCCO)c(=O)c2c(Cc3ccc(Cl)cc3)c(Oc3cccc(OC(F)(F)F)c3)sc21,21 to 1700 nM
17,Cn1c(=O)n(CCCO)c(=O)c2c(C(O)c3ccc(Cl)cc3)c(Oc3cccc(OC(F)(F)F)c3)sc21 (stereo not drawn),21 to 1700 nM
18,Cc1c(-c2cccc(OC(F)(F)F)c2)sc2c1c(=O)n(CCCO)c(=O)n2C,21 to 1700 nM
19,Cc1c(-c2cccc(F)c2)sc2c1c(=O)n(CCCO)c(=O)n2C,21 to 1700 nM
20,Cc1c(-c2ccc(F)c(C(F)(F)F)c2)sc2c1c(=O)n(CCCO)c(=O)n2C,21 to 1700 nM
21,Cc1c(-c2cccc(OC(F)(F)F)c2)n(C)c2c(=O)n(CCCO)c(=O)n(C)c12,408 to 7540 nM
22,Cn1c(=O)n(CCCO)c(=O)c2c(Cc3ccc(Cl)cc3)c(Oc3cccc(Cl)c3)ncc21,195 to 9800 nM
23,Cn1c(=O)n(CCCOC(=O)O)c(=O)c2c(Cc3ccc(Cl)cc3)c(-c3ccc(Cl)cc3)ncc21,195 to 9800 nM
24,Cc1c(-c2ccc3ccccc3c2)sc2c1c(=O)n(CCCO)c(=O)n2C,21 to 1700 nM

# Target: T1, Short transient receptor potential channel 5
# Assay: Inhibition of human TRPC5 expressed in HEK293 cells assessed as reduction in gadolinium-induced calcium entry after 30 mins by fluo-4 dye based fluorescence assay
# Format: cell-based
row,Compound,IC50
1,O=c1cc(-c2ccc(O)cc2)oc2cc(O)cc(O)c12 [APIGENIN],> 10 µM
2,O=c1c(O)c(-c2cc(O)c(O)c(O)c2)oc2cc(O)cc(O)c12 [MYRICETIN],> 10 µM
3,O=c1cc(-c2ccc(O)c(O)c2)oc2cc(O)cc(O)c12 [LUTEOLIN],> 10 µM

# Target: T2, Short transient receptor potential channel 3 (Homo sapiens, UniProt Q13507)
# T2 sequence (Q13507 whole entry): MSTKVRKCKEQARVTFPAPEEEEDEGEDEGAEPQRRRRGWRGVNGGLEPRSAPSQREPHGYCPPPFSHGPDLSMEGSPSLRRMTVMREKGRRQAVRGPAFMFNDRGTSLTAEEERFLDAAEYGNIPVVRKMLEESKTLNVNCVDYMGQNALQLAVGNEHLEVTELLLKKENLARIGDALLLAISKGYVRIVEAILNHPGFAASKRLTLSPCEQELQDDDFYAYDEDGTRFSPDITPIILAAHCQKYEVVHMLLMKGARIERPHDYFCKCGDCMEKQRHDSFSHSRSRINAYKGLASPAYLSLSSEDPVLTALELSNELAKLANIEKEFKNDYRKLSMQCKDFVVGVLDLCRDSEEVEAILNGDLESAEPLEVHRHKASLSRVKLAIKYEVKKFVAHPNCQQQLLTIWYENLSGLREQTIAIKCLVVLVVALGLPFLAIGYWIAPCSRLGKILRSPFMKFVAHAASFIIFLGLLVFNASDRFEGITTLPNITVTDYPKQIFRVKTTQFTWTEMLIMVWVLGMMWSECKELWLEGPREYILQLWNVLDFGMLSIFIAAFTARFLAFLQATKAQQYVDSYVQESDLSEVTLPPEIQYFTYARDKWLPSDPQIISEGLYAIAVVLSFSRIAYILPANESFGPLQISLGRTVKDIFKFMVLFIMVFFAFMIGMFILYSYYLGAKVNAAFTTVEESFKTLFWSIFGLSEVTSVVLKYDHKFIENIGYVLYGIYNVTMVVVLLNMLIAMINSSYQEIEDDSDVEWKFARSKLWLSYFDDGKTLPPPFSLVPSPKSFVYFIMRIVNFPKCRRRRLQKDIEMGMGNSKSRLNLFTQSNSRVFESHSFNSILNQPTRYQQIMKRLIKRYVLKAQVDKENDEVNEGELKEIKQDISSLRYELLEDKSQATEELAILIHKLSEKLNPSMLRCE
# Assay: Inhibition of YFP-tagged TRPC3 (unknown origin) expressed in HEK293 cells assessed as reduction carbhocol-induced receptor operated Calcium influx after 5 mins by fura-2-AM dye based assay
# Format: cell-based
row,Compound,IC50
1,Cc1ccc(S(=O)(=O)Nc2ccc(-n3nc(C(F)(F)F)cc3C(F)(F)F)cc2)cc1,720 nM

# Target: ORAI1/STIM1 (Rattus norvegicus, UniProt P84903+Q5M848)
# Sequence (P84903 whole entry): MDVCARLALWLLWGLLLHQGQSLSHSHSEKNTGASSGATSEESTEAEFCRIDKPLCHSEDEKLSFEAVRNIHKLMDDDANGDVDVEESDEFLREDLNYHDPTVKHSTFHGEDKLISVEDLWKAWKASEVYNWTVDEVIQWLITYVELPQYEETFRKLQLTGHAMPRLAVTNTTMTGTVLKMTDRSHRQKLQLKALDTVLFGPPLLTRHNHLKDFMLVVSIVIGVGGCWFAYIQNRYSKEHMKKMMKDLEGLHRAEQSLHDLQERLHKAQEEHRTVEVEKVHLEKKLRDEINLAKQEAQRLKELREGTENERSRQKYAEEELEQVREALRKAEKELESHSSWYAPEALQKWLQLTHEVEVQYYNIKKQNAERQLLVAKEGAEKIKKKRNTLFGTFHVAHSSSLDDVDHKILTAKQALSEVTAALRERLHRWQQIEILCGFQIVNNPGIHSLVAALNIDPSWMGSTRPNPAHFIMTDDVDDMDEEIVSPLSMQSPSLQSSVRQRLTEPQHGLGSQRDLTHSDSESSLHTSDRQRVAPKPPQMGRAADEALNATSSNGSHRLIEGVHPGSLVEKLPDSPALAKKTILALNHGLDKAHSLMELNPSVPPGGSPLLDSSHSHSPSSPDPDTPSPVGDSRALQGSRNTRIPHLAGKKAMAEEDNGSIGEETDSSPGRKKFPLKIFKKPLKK
# Sequence (Q5M848 whole entry): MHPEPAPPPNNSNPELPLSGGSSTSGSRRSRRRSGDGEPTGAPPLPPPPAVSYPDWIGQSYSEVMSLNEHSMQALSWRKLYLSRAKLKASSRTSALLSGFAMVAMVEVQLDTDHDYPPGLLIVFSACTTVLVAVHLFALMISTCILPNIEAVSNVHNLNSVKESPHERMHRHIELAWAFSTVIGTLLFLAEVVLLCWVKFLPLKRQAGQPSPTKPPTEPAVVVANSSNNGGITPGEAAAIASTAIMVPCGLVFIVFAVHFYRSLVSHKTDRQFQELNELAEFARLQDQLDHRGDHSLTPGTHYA
# Assay: Inhibition of ORAI/STIM1 in thapsigargin treated rat RBL2H3 cells assessed as reduction in store-operated calcium entry after 5 mins by fura-2-AM dye based assay
# Format: cell-based
row,Compound,IC50
1,Cc1ccc(S(=O)(=O)Nc2ccc(-n3nc(C(F)(F)F)cc3C(F)(F)F)cc2)cc1,13.1 µM
